Experimental data as given in US8058437B2, “(Pyrroloquinoxalinyl) pyrazinecarbohydrazide-oxalic acid co-crystal for treatment of cancer and other diseases” (Novelix Pharmaceuticals, Inc., priority 2008, dated 2011).

Experiments:
[1] = tested on: TC32luc Ewing tumor cell line; assay: Ewing's sarcoma cell viability by luminescence, TC32luc; format: cell-based, human; details: 72 hours
Experimental: (§1) Treatment of Ewing's sarcoma with NVX-412. The TC71luc and TC32luc Ewing tumor cell lines stably express the luciferase gene. Cells were seeded into 96-well plates 24 hours before treating with the active compound to allow attachment. Cells were treated with NVX-412 for 72 hours. Serial dilutions of NVX-412 were prepared in medium from a 10 μM stock solution in DMSO. […] After 72 hours, cell viability was measured by luminescence using a Saphire2 plate reader.

[2] = tested on: TC71luc Ewing tumor cell line; assay: Ewing's sarcoma cell viability by luminescence, TC71luc; format: cell-based, human; details: 72 hours
Experimental: as §1

[3] = tested on: human cancer cell lines (NCI60); assay: Treatment of human cancer cell lines with NVX-412 (NCI screening procedure, SRB staining); format: cell-based
Experimental: Treatment of various cancer cell lines with NVX-412. Over 60 human cancer cell lines were treated with NVX-412 according to procedures detailed by the National Cancer Institute Developmental Therapeutics Program (see dtp.nci.nih.gov/branches/btb/ivclsp.html) and Shoemaker R H (Nat. Rev. Cancer, 6, 813-823, (2006)) and references cited therein. Many of the cell lines tested are available from the American Type Culture Collection (Rockville, Md., USA). The melanoma cell line 518A2 has been described previously (Jansen et al., “Activated N-Ras Contributes to the Chemoresistance of Human Melanoma in Severe Combined Immunodeficiency (SCID) Mice by Blocking Apoptosis,” Cancer Research 57, 362-65 (1997)). A typical screening of cancer cell treatment by NVX-412 employed the following procedure.
The human tumor cell lines of the cancer screening panel were grown in RPMI 1640 medium containing 5% fetal bovine serum and 2 mM L-glutamine. For a typical screening experiment, cells were inoculated into 96 well microtiter plates in 100 μL at plating densities ranging from 5,000 to 40,000 cells/well depending on the doubling time of individual cell lines. After cell inoculation, the microtiter plates were incubated at 37° C. in 5% CO2/95% air at 100% relative humidity for 24 hours prior to the addition of NVX-412. […]
Following the addition of NVX-412, the plates were incubated for an additional 48 hours at 37° C. in 5% CO2/95% air at 100% relative humidity. […] Bound stain was subsequently solubilized with 10 mM trizma base, and the absorbance was read on an automated plate reader at a wavelength of 515 nm. […] Using the seven absorbance measurements [time zero (Tz), control growth (C), and test growth in the presence of NVX-412 at the five concentration levels (Ti)], the percentage growth was calculated at each of the NVX-412 concentration levels. Percentage growth inhibition was calculated as: [(Ti−Tz)/(C−Tz)]*100 for concentrations for which Ti≧Tz [(Ti−Tz)/Tz]*100 for concentrations for which Ti<Tz.
Three dose response parameters were calculated. […]

## O=C(NNc1nc2cc(F)ccc2n2cccc12)c1cnccn1.O=C(O)C(=O)O [NVX-412, N′-(7-fluoropyrrolo[1,2a]quinoxalin-4-yl)pyrazine-2-carbohydrazide oxalic acid co-crystal]
[1]; TC32, NVX-412 5 nM
  fraction of cells remaining after three days, mean: 1.03
[1]; TC32, NVX-412 10 nM
  fraction of cells remaining after three days, mean: 0.96
[1]; TC32, NVX-412 25 nM
  fraction of cells remaining after three days, mean: 0.95
[1]; TC32, NVX-412 50 nM
  fraction of cells remaining after three days, mean: 0.91
[1]; TC32, NVX-412 75 nM
  fraction of cells remaining after three days, mean: 0.69
[1]; TC32, NVX-412 100 nM
  fraction of cells remaining after three days, mean: 0.44
[1]; TC32, NVX-412 150 nM
  fraction of cells remaining after three days, mean: 0.15
[1]; TC32, NVX-412 200 nM
  fraction of cells remaining after three days, mean: 0.06
[1]; TC32, NVX-412 375 nM
  fraction of cells remaining after three days, mean: 0.01
[2]; TC71, NVX-412 5 nM
  fraction of cells remaining after three days, mean: 1.00
[2]; TC71, NVX-412 10 nM
  fraction of cells remaining after three days, mean: 0.97
[2]; TC71, NVX-412 25 nM
  fraction of cells remaining after three days, mean: 0.95
[2]; TC71, NVX-412 50 nM
  fraction of cells remaining after three days, mean: 0.92
[2]; TC71, NVX-412 75 nM
  fraction of cells remaining after three days, mean: 0.76
[2]; TC71, NVX-412 100 nM
  fraction of cells remaining after three days, mean: 0.50
[2]; TC71, NVX-412 150 nM
  fraction of cells remaining after three days, mean: 0.21
[2]; TC71, NVX-412 200 nM
  fraction of cells remaining after three days, mean: 0.08
[2]; TC71, NVX-412 375 nM
  fraction of cells remaining after three days, mean: 0.01
[3]; almost all cell lines tested, 48 hours incubation
  GI50: nanomolar range
[3]; cancer cell lines tested, summary
  inhibition of tumor cell growth: pronounced inhibition of tumor cell growth
[3]; sarcoma, melanoma, and CNS cancer cell lines, summary
  effectiveness against cancer cell lines: very effective
